Reference: patent publication US8664391B2, “Amide compounds as boosters of antivirals” (Janssen R&D Ireland Ltd, priority 2008, dated 2014)
Where two headings read alike, the source gives them in different places.

Tests used:
[1] = system: wild-type HIV-1 IIIB strain; experiment: Antiviral activity in MT4 LTR-EGFP cellular assay; assay type: cell-based; details: read-out: Antiviral Activity IIIB pEC50 (converted)
Experimental: (§1) Assay 1 &2: Antiviral Activity/Toxicity
The compounds of the present invention were tested for antiviral activity in a cellular assay, which was performed according to the following procedure.
The human T-cell line MT4 is engineered with Green Fluorescent Protein (GFP) and an HIV-specific promoter, HIV-1 long terminal repeat (LTR). This cell line is designated MT4 LTR-EGFP, and can be used for the in vitro evaluation of anti-HIV activity of investigational compounds. In HIV-1 infected cells, the Tat protein is produced which upregulates the LTR promotor and finally leads to stimulation of the GFP reporter production, allowing measuring ongoing HIV-infection fluorometrically.
(§2) The ratio of CC50 to EC50 is defined as the selectivity index (SI) and is an indication of the selectivity of the anti-HIV activity of the inhibitor. The ultimate monitoring of HIV-1 infection and cytotoxicity is done using a scanning microscope. Image analysis allows very sensitive detection of viral infection. Measurements are done before cell necrosis, which usually takes place about five days after infection, in particular measurements are performed three days after infection.
A pEC50 value corresponds to −log10(EC50). A pCC50 value corresponds to −log10(CC50).

[2] = target: T1, CYP2C19 (Homo sapiens, UniProt P33261); experiment: CYP450 inhibition, fluorescent substrate assay, CYP2C19; assay type: biochemical; details: substrate CEC 25 μM, read-out: 2C19-CEC % inh.
T1 construct: host or cells: E. coli
Experimental: (§3) Assay 4: CYP450 Inhibition […] This fluorescent molecule was measured using a fluorescent plate reader (Victor2 (Wallac) or Fluoroskan (Labsystems)). Compounds inhibiting the enzymatic reaction will result in a decrease of fluorescent signal. CYP P450 enzymes were prepared in house or commercially bought and stored at −80° C. [table] The assay was performed in black 96 well Costar plates. Test compounds were added to a CYP P450 enzyme solution in the presence of an NADPH generating system. After 5 min of preincubation at 37° C., the freshly prepared, phosphate buffered (pH 7.4) substrate solution was added. Known CYP P450 inhibitors were used as positive controls, negative controls were run without CYP P450 enzyme. For final reaction mixture concentrations, see Table 6. […] Then, the reaction was stopped by the addition of 200 μl acetonitrile, and the fluorescent signal was detected. [table] […] Inhibition of TMC114 Metabolisation

[3] = in vitro; assay type: in vitro ADME, human; details: pH 7.4
From the text: Assay 3: Metabolic Stability of Test Compounds (HLM15′)
Sub-cellular tissue preparations are made according to Gorrod et al. (Xenobiotica, 5, pp. 453-462 (1975)) by centrifugal separation after mechanical homogenization of tissue. Human liver tissue is rinsed in ice-cold 0.1 M Tris-HCl (pH 7.4) buffer to wash excess blood. Tissue is then blotted dry, weighed and chopped coarsely using surgical scissors. The tissue pieces are homogenized in 3 volumes of ice-cold 0.1 M phosphate buffer (pH 7.4) using either a Potter-S (Braun, Italy) equipped with a Teflon pestle or a Sorvall Omni-Mix homogenizer, for 7×10 sec. In both cases, the vessel is kept in/on ice during the homogenization process. Tissue homogenates are centrifuged at 9000×g for 20 min at 4° C. using a Sorvall centrifuge or Beckman Ultracentrifuge. The resulting supernatant can be stored at −80° C. and is designated ‘S9’. The S9 fraction is centrifuged at 100,000×g for 60 min at 4° C. using a Beckman ultracentrifuge. The resulting supernatant is carefully aspirated, aliquoted and designated ‘cytosol’. The pellet is re-suspended in 0.1 M phosphate buffer (pH 7.4) in a final volume of 1 ml per 0.5 g original tissue weight and designated ‘microsomes’. All sub-cellular fractions are aliquoted, immediately frozen in liquid nitrogen and stored at −80° C. until use.
Heat-inactivated (10 min at 95° C.) ‘S9’ or microsomes were used for blank experiments. Reaction mixtures were incubated at 37° C. for 5 min, after which the reaction was started by the addition of 0.8 mM β-NADP. The reaction was incubated for 0 or 15 min. Next, the reaction was stopped by addition of 2 volumes of DMSO (or acetonitrile). Samples were centrifuged (10 min, 900×g) and analyzed by LC-MS.

[4] = target: T2, CYP2D6 (Homo sapiens, UniProt P10635); experiment: CYP450 inhibition, fluorescent substrate assay, CYP2D6; assay type: biochemical; details: substrate AMMC 3 μM, read-out: 2D6-AMMC % inh.
T2 construct: host or cells: E. coli
Experimental: as §3

[5] = Cytotoxicity in mock-infected MT4 CMV-EGFP cells; assay type: cell-based; details: human, pCC50 = -log10(CC50), read-out: Toxicity MT4 pCC50 (converted)
From the text: as §1
Analogously, MT4 cells are engineered with GFP and the constitutional cytomegalovirus (CMV) promotor. This cell line is designated MT4 CMV-EGFP, and can be used for the in vitro evaluation of cytotoxicity of investigational compounds. In this cell line, GFP levels are comparably to those of infected MT4 LTR-EGFP cells. Cytotoxic investigational compounds reduce GFP levels of mock-infected MT4 CMV-EGFP cells.
as §2, with “Effective concentration values such as 50% effective concentration (EC50) can be determined and are usually expressed in μM. An EC50 value is defined as the concentration of test compound that reduces the fluorescence of HIV-infected cells by 50%. The 50% cytotoxic concentration (CC50 in μM) is defined as the concentration of test compound that reduces fluorescence of the mock-infected cells by 50%. The ratio” for “The ratio”
Table 2 lists pEC50 values against the wild-type HIV-1 IIIB strain as well as pCC50 values for a selected number of compounds of the invention. A pEC50 value corresponds to −log10(EC50). A pCC50 value corresponds to −log10(CC50).

[6] = target: T3, CYP1A2 (Homo sapiens, UniProt P05177); experiment: CYP450 inhibition, fluorescent substrate assay, CYP1A2; assay type: biochemical; details: substrate CEC 5 μM, read-out: 1A2-CEC % inh.
T3 construct: host or cells: E. coli
T3 sequence (P05177 1-516): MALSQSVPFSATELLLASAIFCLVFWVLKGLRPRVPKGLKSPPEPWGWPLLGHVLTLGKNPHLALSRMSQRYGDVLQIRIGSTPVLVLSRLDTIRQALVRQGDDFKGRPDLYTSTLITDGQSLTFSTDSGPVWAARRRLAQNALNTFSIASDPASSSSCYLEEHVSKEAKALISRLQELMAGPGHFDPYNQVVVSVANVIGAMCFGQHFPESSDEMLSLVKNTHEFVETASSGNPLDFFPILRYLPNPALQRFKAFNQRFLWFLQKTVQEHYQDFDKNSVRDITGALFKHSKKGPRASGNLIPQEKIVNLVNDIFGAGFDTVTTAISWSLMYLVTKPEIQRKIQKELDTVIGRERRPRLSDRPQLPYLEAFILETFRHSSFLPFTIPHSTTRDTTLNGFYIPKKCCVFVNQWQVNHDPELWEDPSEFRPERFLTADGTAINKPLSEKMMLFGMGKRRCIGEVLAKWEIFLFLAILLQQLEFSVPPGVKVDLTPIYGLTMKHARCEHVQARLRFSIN
Experimental: as §3

[7] = target: CYP2C9 (Homo sapiens, UniProt P11712); experiment: CYP450 inhibition, fluorescent substrate assay, CYP2C9; assay type: biochemical
Experimental: as §3

[8] = target: T4, CYP3A4 (Homo sapiens, UniProt P08684); experiment: CYP450 inhibition, fluorescent substrate assay, CYP3A4; assay type: biochemical; details: 10 μM test compound; for inhibition at 10 min, 10 μM: E. coli expressed CYP3A4, pH 7.4, probe DBF (1 μM), substrate DBF 1 μM, read-out: 3A4-DBF % inh.
T4 construct: host or cells: E. coli
Experimental: as §3

[9] = Human immunodeficiency virus 1, 72 h, wild-type HIV-1 IIIB, MT4 LTR-EGFP cells, three days after infection, pEC50 = -log10(EC50)
[10] = E. coli expressed CYP2C19, pH 7.4, probe CEC (25 μM), 10 μM test compound
[11] = E. coli expressed CYP2D6, pH 7.4, probe AMMC (3 μM), 10 μM test compound
[12] = E. coli expressed CYP1A2, pH 7.4, probe CEC (5 μM), 10 μM test compound
[13] = E. coli expressed CYP3A4, pH 7.4, probe BFC (150 μM), substrate BFC 150 μM, read-out: 3A4-BFC % inh.
[14] = E. coli expressed CYP3A4, pH 7.4, probe BQ (60 μM), substrate BQ 60 μM, read-out: 3A4-BQ % inh.

T2 sequence (P10635 whole entry): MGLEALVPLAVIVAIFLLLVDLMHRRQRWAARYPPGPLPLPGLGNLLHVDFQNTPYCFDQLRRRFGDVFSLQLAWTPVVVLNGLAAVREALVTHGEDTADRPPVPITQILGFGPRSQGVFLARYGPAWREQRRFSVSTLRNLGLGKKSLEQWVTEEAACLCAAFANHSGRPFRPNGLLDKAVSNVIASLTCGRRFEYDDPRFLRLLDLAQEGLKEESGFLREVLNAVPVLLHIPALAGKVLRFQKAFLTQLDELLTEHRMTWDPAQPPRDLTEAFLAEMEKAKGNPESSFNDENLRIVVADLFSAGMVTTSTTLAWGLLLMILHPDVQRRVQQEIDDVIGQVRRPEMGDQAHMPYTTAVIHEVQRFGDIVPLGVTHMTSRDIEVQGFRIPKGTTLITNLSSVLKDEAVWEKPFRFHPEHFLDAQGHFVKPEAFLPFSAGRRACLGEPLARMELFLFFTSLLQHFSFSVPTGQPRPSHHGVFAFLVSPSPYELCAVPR
T4 sequence (P08684 whole entry): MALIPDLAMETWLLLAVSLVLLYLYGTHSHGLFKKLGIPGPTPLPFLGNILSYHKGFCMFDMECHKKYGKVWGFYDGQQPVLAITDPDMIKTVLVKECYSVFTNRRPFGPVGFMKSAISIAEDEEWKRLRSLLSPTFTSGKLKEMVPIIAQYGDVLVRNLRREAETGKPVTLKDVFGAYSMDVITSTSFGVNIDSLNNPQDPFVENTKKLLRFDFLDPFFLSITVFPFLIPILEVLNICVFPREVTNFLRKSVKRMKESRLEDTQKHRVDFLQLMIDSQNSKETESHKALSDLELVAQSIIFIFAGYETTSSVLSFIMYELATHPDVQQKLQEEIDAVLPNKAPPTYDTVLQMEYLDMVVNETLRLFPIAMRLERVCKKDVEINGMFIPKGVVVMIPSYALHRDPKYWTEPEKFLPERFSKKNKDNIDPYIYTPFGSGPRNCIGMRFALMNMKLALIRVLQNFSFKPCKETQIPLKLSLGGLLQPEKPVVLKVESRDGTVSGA
T1 sequence (P33261 whole entry): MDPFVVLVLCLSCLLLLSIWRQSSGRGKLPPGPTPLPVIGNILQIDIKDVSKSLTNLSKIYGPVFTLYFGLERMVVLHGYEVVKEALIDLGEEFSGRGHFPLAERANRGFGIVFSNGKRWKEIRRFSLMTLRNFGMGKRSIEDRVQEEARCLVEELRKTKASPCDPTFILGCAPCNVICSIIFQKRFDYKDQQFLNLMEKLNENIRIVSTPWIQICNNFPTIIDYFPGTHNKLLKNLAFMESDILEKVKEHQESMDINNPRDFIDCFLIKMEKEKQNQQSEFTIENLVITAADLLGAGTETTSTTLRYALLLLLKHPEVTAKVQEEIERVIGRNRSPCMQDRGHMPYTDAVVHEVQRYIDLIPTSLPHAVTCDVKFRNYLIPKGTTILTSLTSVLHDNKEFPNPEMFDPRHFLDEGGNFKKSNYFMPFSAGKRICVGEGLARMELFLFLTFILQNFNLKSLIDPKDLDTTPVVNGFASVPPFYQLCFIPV
CYP2C9, sequence (P11712 whole entry): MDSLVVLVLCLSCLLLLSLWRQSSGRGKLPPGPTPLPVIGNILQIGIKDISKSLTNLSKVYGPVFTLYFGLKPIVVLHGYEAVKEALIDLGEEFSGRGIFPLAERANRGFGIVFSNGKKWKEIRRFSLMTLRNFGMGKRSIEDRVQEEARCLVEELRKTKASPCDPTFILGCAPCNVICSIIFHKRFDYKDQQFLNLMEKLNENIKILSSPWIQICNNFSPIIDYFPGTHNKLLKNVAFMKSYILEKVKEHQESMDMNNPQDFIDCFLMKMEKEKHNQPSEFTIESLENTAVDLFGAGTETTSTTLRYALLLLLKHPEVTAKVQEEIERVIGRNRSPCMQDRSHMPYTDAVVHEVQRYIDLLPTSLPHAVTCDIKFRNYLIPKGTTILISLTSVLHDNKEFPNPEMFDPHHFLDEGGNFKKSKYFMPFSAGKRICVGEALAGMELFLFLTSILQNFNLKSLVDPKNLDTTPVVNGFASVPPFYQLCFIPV

Structure (SMILES) | EC50 ([1]; Human immunodeficiency virus 1, IIIB, 72 h) [µM] | inhibition at 30 min, 10 μM ([2]; pH 7.4, 10 μM test compound) [%] | recovery at 15 min, 5 μM ([3]; human liver microsomes 1 mg/ml, 5 μM test compound, 15 min, 37° C., read-out: % recovery HLM15) [%] | inhibition at 45 min, 10 μM ([4]; pH 7.4, 10 μM test compound) [%] | CC50 at 3 days [5] [µM] | inhibition at 15 min, 10 μM ([6]; pH 7.4, 10 μM test compound) [%] | inhibition at 30 min, 10 μM ([7]; pH 7.4, 10 μM test compound, substrate MFC 200 μM, 30 min, read-out: 2C9-MFC % inh.) [%] | EC50 [1, 9] [µM] | inhibition at 30 min, 10 μM [2, 10] [%] | recovery at 15 min, 5 μM ([3]; human) [%] | inhibition at 45 min, 10 μM [4, 11] [%] | inhibition at 15 min, 10 μM [6, 12] [%] | inhibition at 30 min, 10 μM [8, 13] [%] | inhibition at 30 min, 10 μM [8, 14] [%] | inhibition at 10 min, 10 μM [8] [%] | inhibition at 30 min, 10 μM ([7]; pH 7.4) [%]
CC(C)CN(C[C@@H](O)[C@H](Cc1ccccc1)NC(=O)OCc1cncs1)C(=O)c1ccc2c(c1)OCO2 [Compound C1] | 47.9 | 94 | 56 | 73 | 57.5 | 36 | 97 |  |  |  |  |  |  |  |  | 
CC(C)CN(C[C@@H](O)[C@H](Cc1ccccc1)NC(=O)OCc1cncs1)C(=O)c1ccc2occc2c1 [Compound C2] |  |  |  |  | 45.7 |  |  | 44.7 | 98 | 67 | 102 | 40 |  |  |  | 
Cc1ccc(C(=O)N(CC(C)C)C[C@@H](O)[C@H](Cc2ccccc2)NC(=O)OCc2cncs2)cc1 [Compound C3] |  |  |  |  | 70.8 |  |  | 52.5 | 90 | 54 | 49 | 20 | 95 | 85 | 97 | 99
CC(C)CN(C[C@@H](O)[C@H](Cc1ccccc1)NC(=O)OCc1cncs1)C(=O)c1ccc(C(F)(F)F)cc1 [Compound C4] |  |  |  |  | 39.8 |  |  | 31.6 | 92 | 57 | 79 | 62 | 95 | 85 | 99 | 99
COc1ccc(C(=O)N(CC(C)C)C[C@@H](O)[C@H](Cc2ccccc2)NC(=O)OCc2cncs2)cc1 [Compound C5] |  |  |  |  | 87.1 |  |  | 85.1 | 86 | 83 | 41 | 14 | 92 | 82 | 92 | 94
CC(C)CN(C[C@@H](O)[C@H](Cc1ccccc1)NC(=O)OCc1cncs1)C(=O)c1ccc(F)cc1 [Compound C6] |  |  |  |  | > 100 |  |  | 79.4 | 94 | 81 | 65 | 41 | 82 | 83 | 92 | 96
COc1cccc(C(=O)N(CC(C)C)C[C@@H](O)[C@H](Cc2ccccc2)NC(=O)OCc2cncs2)c1 [Compound C7] |  |  |  |  | 70.8 |  |  | 83.2 | 89 | 56 | 45 | 13 | 92 | 80 | 94 | 97
CC(C)CN(C[C@@H](O)[C@H](Cc1ccccc1)NC(=O)OCc1cncs1)C(=O)c1cccc(F)c1 [Compound C19] |  |  |  |  | > 100 |  |  |  | 77 | 69 | 53 | 43 |  |  |  | 93
CC(C)(O)CN(C[C@@H](O)[C@H](Cc1ccccc1)NC(=O)OCc1cncs1)C(=O)c1ccncc1 [Compound C26] |  |  |  |  | > 100 |  |  |  | 35 | 92 | 30 | 0 | 95 | 77 | 84 | 82
